Assay [1] concerns the target T1, native P2X3 receptors, dorsal root ganglia (DRG) neurons (Rattus norvegicus, UniProt P49654).
T1 construct: Modulation of Native P2X3 Receptors in Rat Cultured Sensory Neurons; endogenous in cells; host or cells: primary cultured rat trigeminal ganglion and dorsal root ganglion neurons
T1 sequence (P49654 1-397): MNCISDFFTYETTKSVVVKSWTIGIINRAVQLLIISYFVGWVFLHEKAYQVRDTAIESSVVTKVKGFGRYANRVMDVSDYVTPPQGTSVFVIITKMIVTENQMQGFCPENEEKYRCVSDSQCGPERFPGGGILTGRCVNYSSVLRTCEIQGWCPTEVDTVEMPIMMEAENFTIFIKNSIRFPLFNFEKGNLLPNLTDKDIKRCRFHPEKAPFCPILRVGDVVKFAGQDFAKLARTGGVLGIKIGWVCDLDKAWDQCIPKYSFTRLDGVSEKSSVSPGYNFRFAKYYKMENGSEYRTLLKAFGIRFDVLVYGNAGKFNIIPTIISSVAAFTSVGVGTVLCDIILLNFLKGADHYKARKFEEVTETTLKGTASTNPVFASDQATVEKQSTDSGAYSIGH
The experiment in a line: α,β-meATP-induced currents in cultured dorsal root ganglia neurons. Conditions: DRG neuron, read-out: inhibition (suppression) of the peak current. The format is cell-based. The procedure: (§1) Rat trigeminal (TG), nodose (NG) or dorsal root ganglion (DRG) neurons in culture were prepared as described previously (Sokolova et al., 2001; Simonetti et al., 2006). Neurons were plated on poly-L-lysine (0.2 mg/mL)-coated Petri dishes and cultured for 1 to 2 days under an atmosphere containing 5% CO2. Cells were used within 2 days of plating when they lacked processes. HEK293T cells were prepared as reported previously (Fabbretti et al., 2004; Sokolova et al., 2004) and transfected with rat full-length P2X3 cDNA subcloned into pIRES2-EGFP (Clontech, Mountain View, Calif., USA).
(§2) Trigeminal, nodose, DRG neurons or HEK cells were recorded in the whole-cell configuration while being continuously superfused (at 2 mL/min) with control solution containing (in mM): 152 NaCl, 5 KCl, 1 MgCl2, 2 CaCl2, 10 glucose, and 10 HEPES; pH was adjusted to 7.4 with NaOH and osmolarity was adjusted to 320 mOsM with glucose. […] Responses to selective P2X3 receptor agonist α,β-methylene-ATP (α,β-meATP; resistant to ectoATPase hydrolysis, Sigma-Aldrich) were measured using an EPC-9 amplifier and HEKA Patch Master software (HEKA Electronik, Germany). Cells were voltage-clamped at −70 mV. In most cells, series resistance was compensated by 80%. […]
(§3) The peak amplitudes of the responses were measured using HEKA Patch Master software. […]

For assay [2], the system named is native P2X3 receptors, dorsal root ganglia (DRG) neurons. The assay is described as above. Conditions: 1 μM, DRG neurons. The format is cell-based, rat. The procedure: as §1, §2, §3
Assay [3] concerns the target T2, native P2X3 receptors, trigeminal ganglia (TG) neurons (Rattus norvegicus, UniProt P49654).
T2 construct: Modulation of Native P2X3 Receptors in Rat Cultured Sensory Neurons; endogenous in cells; host or cells: primary cultured rat trigeminal ganglion and dorsal root ganglion neurons
T2 sequence (P49654 1-397): T1 sequence (P49654 1-397)
The experiment in a line: α,β-meATP-induced currents in cultured trigeminal ganglia neurons. The format is cell-based. Conditions: read-out: inhibition (suppression) of the peak current. The procedure: as §1, §2, §3

In assay [4] the test system is native P2X3 receptors, trigeminal ganglia (TG) neurons. Described as above. Conditions: 1 μM, TG neurons. The format is cell-based, rat. The procedure: as §1, §2, §3

Take `Nc1ncnc2c1ncn2[C@@H]1O[C@H](COP(=O)(O)OP(=O)(O)NP(=O)(O)OP(=O)(O)OC[C@H]2O[C@@H](n3cnc4c(N)ncnc43)C(O)C2O)C(O)C1O` (stereo in doubt) [AppNHppA]: the results for the inhibition at 1 µM in assay [1] and in assay [3] were 79.2 ± 5.6% and 80.3 ± 4.4%, respectively. Besides, the “inhibition of sustained residual component” value in assay [2] stood at 18±6%; in assay [4], 15±6%.

As a reminder, the inhibition is the change of the read-out against control, counted positive when it falls.

These data come from patent publication US20150119352A1, “DINUCELOSIDE POLYPHOSPHATES FOR THE TREATMENT OF PAIN” (GlobalAcorn Ltd., priority 2012, published 2015).
